≈ marks a conversion by molar mass, not a printed value. Read-outs that look alike come from different tables or passages of the source.
Tests used:
Strep. bovis A5169 = assay: antimicrobial spectrum, agar dilution MIC; type: cell-based; conditions: BHI agar, 35°-37° C., 20-24 hours
Strep. pyogenes EES61 = assay: antimicrobial spectrum, agar dilution MIC; type: cell-based; conditions: BHI agar, 35°-37° C., 20-24 hours
Staph. aureus ATCC 25923 = assay: antimicrobial spectrum, agar dilution MIC; type: cell-based; conditions: 35°-37° C., 20-24 hours
Staph. aureus CMX 739A = assay: antimicrobial spectrum, agar dilution MIC; type: cell-based; conditions: BHI agar, 35°-37° C., 20-24 hours
Staph. aureus CMX 730A = assay: antimicrobial spectrum, agar dilution MIC; type: cell-based; conditions: BHI agar, 35°-37° C., 20-24 hours
Staph. aureus 642A = assay: antimicrobial spectrum, agar dilution MIC; type: cell-based; conditions: BHI agar, 35°-37° C., 20-24 hours
Staph. aureus CYR 1150 = assay: antimicrobial spectrum, agar dilution MIC; type: cell-based; conditions: 35°-37° C., 20-24 hours
Staph. aureus CYR 1162 = assay: antimicrobial spectrum, agar dilution MIC; type: cell-based; conditions: 35°-37° C., 20-24 hours
[1] = system: Strep. pneumoniae CMX 635; assay: antimicrobial spectrum, agar dilution MIC; type: cell-based; conditions: 35°-37° C., 20-24 hours
Strep. pyogenes C203 = assay: antimicrobial spectrum, agar dilution MIC; type: cell-based; conditions: BHI agar, 35°-37° C., 20-24 hours
Bact. fragilis 105 = assay: antimicrobial spectrum, agar dilution MIC; type: cell-based; conditions: BHI agar, 35°-37° C., 20-24 hours
Bact. fragilis SFM2975-7 = assay: antimicrobial spectrum, agar dilution MIC; type: cell-based; conditions: 35°-37° C., 20-24 hours
Bact. vulgatus 792 = assay: antimicrobial spectrum, agar dilution MIC; type: cell-based; conditions: BHI agar, 35°-37° C., 20-24 hours
[2] = system: Bact. thetaiotamicron 3304; assay: antimicrobial spectrum, agar dilution MIC; type: cell-based; conditions: BHI agar, 35°-37° C., 20-24 hours
[3] = system: Bact. melaninogenicus ATCC 15930; assay: antimicrobial spectrum, agar dilution MIC; type: cell-based; conditions: 35°-37° C., 20-24 hours
Cl. perfringens 104 = assay: microbe, parasite or virus in culture; type: cell-based
[4] = system: Cl. perfringens SFBC 2026; assay: microbe, parasite or virus in culture; type: cell-based
Pep. magnus ATCC 29328 = assay: antimicrobial spectrum, agar dilution MIC; type: cell-based; conditions: 35°-37° C., 20-24 hours
Strep. pneumoniae = assay: acute mouse protection test; type: in vivo, Swiss albino mice; conditions: mice, dosed 1 and 5 hours post-infection, observed 7 days; for ED50: Streptococcus pneumoniae, 168 h
[5] = beagle dogs, oral, 10.0 mg/kg, buffered solution of the lactobionate salt in water; in comparison to erythromycin A
Staph. aureus CMX 686B = assay: antimicrobial spectrum, agar dilution MIC
Strep. pyogenes 930 = assay: antimicrobial spectrum, agar dilution MIC; conditions: BHI agar, 35°-37° C., 20-24 hours
[6] = system: Ent. aerogenes ATCC 10348; assay: antimicrobial spectrum, agar dilution MIC
[7] = system: Klebsiella pneumoniae 8045; assay: antimicrobial spectrum, agar dilution MIC; conditions: BHI agar, 35°-37° C., 20-24 hours
[8] = system: Pseudomonas aeruginosa K799/61; assay: antimicrobial spectrum, agar dilution MIC
Acinetobacter SP CMX 669 = assay: antimicrobial spectrum, agar dilution MIC
Staph. aureus A-5278 = assay: antimicrobial spectrum, agar dilution MIC
[9] = system: Staph. epidermidis CMX 724G; assay: antimicrobial spectrum, agar dilution MIC
Enterococcus CMX 729G = assay: antimicrobial spectrum, agar dilution MIC
Enterococcus A-5168 = assay: antimicrobial spectrum, agar dilution MIC
Enterococcus GYR 1164 = assay: antimicrobial spectrum, agar dilution MIC
Enterococcus GYR 1167 = assay: antimicrobial spectrum, agar dilution MIC
Bact. fragilis SFM2906A = assay: antimicrobial spectrum, agar dilution MIC
[10] = system: Bact. thetaiotamicron ATCC 29741; assay: antimicrobial spectrum, agar dilution MIC
Fusobacterium SP GS-10 = assay: antimicrobial spectrum, agar dilution MIC
Peptostrep. SP TB-11 = assay: antimicrobial spectrum, agar dilution MIC
Bact. fragilis UC-2 = assay: microbe, parasite or virus in culture; conditions: Bacteroides fragilis, UC2
[11] = Streptococcus pyogenes, read-out: MIC

Structure (SMILES): CCC1OC(=O)C(C)C(OC2CC(C)(OC)CC(C)O2)C(C)C(OC2OC(C)CC(N(C)C)C2O)C(C)(O)CC(C)C(=O)C(C)C2OC(=O)OC12C (stereo not shown) [4"-deoxyerythromycin A 11,12-carbonate]
- MIC (Strep. bovis A5169): .005 µg/mL (≈ 0.00672 µM)
- MIC (Strep. pyogenes EES61): .01 µg/mL (≈ 0.0134 µM)
- MIC (Staph. aureus ATCC 25923; BHI agar): .03 µg/mL (≈ 0.0403 µM)
- MIC (Staph. aureus CMX 739A): .03 µg/mL (≈ 0.0403 µM)
- MIC (Staph. aureus CMX 730A): .03 µg/mL (≈ 0.0403 µM)
- MIC (Staph. aureus 642A): .06 µg/mL (≈ 0.0807 µM)
- MIC (Staph. aureus CYR 1150; BHI agar): .03 µg/mL (≈ 0.0403 µM)
- MIC (Staph. aureus CYR 1162; BHI agar): .06 µg/mL (≈ 0.0807 µM)
- MIC ([1]; BHI agar): .008 µg/mL (≈ 0.0108 µM)
- MIC (Strep. pyogenes C203): .004 µg/mL (≈ 0.00538 µM)
- MIC (Bact. fragilis 105): .2 µg/mL (≈ 0.269 µM)
- MIC (Bact. fragilis SFM2975-7; BHI agar): .8 µg/mL (≈ 1.08 µM)
- MIC (Bact. vulgatus 792): .2 µg/mL (≈ 0.269 µM)
- MIC [2]: 3.1 µg/mL (≈ 4.17 µM)
- MIC ([3]; BHI agar): .1 µg/mL (≈ 0.134 µM)
- MIC (Cl. perfringens 104; Cl. perfringens 104, BHI agar, 35°-37° C., 20-24 hours): .4 µg/mL (≈ 0.538 µM)
- MIC ([4]; Cl. perfringens SFBC 2026, BHI agar, 35°-37° C., 20-24 hours): .4 µg/mL (≈ 0.538 µM)
- MIC (Pep. magnus ATCC 29328; BHI agar): .2 µg/mL (≈ 0.269 µM)
- ED-50 (Strep. pneumoniae; oral): 200.0 mg/kg
- ED-50 (Strep. pneumoniae; subcutaneous): 44.1 mg/kg
- half life [5]: substantially longer half life
- peak blood level [5]: markedly higher peak blood level
- MIC (Staph. aureus CMX 686B; Staph. aureus CMX 686B, BHI agar, 35°-37° C., 20-24 hours): .1 µg/mL (≈ 0.134 µM)
- MIC (Strep. pyogenes 930): 100 µg/mL (≈ 134 µM)
- MIC ([6]; Ent. aerogenes ATCC 10348, BHI agar, 35°-37° C., 20-24 hours): 50 µg/mL (≈ 67.2 µM)
- MIC [7]: 25 µg/mL (≈ 33.6 µM)
- MIC ([8]; Pseudomonas aeruginosa K799/61, BHI agar, 35°-37° C., 20-24 hours): 1.56 µg/mL (≈ 2.1 µM)
- MIC (Acinetobacter SP CMX 669; Acinetobacter SP CMX 669, BHI agar, 35°-37° C., 20-24 hours): 6.2 µg/mL (≈ 8.33 µM)
- MIC (Staph. aureus A-5278; Staph. aureus A-5278, BHI agar, 35°-37° C., 20-24 hours): 128 µg/mL (≈ 172 µM)
- MIC ([9]; Staph. epidermidis CMX 724G, BHI agar, 35°-37° C., 20-24 hours): 128 µg/mL (≈ 172 µM)
- MIC (Enterococcus CMX 729G; Enterococcus CMX 729G, BHI agar, 35°-37° C., 20-24 hours): .12 µg/mL (≈ 0.161 µM)
- MIC (Enterococcus A-5168; Enterococcus A-5168, BHI agar, 35°-37° C., 20-24 hours): 128 µg/mL (≈ 172 µM)
- MIC (Enterococcus GYR 1164; Enterococcus GYR 1164, BHI agar, 35°-37° C., 20-24 hours): .12 µg/mL (≈ 0.161 µM)
- MIC (Enterococcus GYR 1167; Enterococcus GYR 1167, BHI agar, 35°-37° C., 20-24 hours): .5 µg/mL (≈ 0.672 µM)
- MIC (Bact. fragilis SFM2906A; Bact. fragilis SFM2906A, BHI agar, 35°-37° C., 20-24 hours): .8 µg/mL (≈ 1.08 µM)
- MIC ([10]; Bact. thetaiotamicron ATCC 29741, BHI agar, 35°-37° C., 20-24 hours): 1.6 µg/mL (≈ 2.15 µM)
- MIC (Fusobacterium SP GS-10; Fusobacterium SP GS-10, BHI agar, 35°-37° C., 20-24 hours): 25 µg/mL (≈ 33.6 µM)
- MIC (Peptostrep. SP TB-11; Peptostrep. SP TB-11, BHI agar, 35°-37° C., 20-24 hours): .8 µg/mL (≈ 1.08 µM)

Structure (SMILES): CC[C@H]1OC(=O)[C@H](C)[C@@H](O[C@H]2C[C@@](C)(OC)[C@@H](O)[C@H](C)O2)[C@H](C)[C@@H](O[C@@H]2O[C@H](C)C[C@H](N(C)C)[C@H]2O)[C@](C)(O)C[C@@H](C)C(=O)[C@H](C)[C@@H](O)[C@]1(C)O [Erythromycin A, reference compound]
- MIC (Strep. bovis A5169; Streptococcus equinus, read-out: MIC): 0.01 µg/mL (≈ 0.0136 µM)
- MIC (Strep. pyogenes EES61; [11]): 0.01 µg/mL (≈ 0.0136 µM)
- MIC (Staph. aureus ATCC 25923; Staphylococcus aureus, ATCC25923, BHI agar, read-out: MIC): 0.06 µg/mL (≈ 0.0818 µM)
- MIC (Staph. aureus CMX 739A; Staphylococcus aureus, CMX739A, read-out: MIC): 0.06 µg/mL (≈ 0.0818 µM)
- MIC (Staph. aureus CMX 730A; Staphylococcus aureus, CMX730A, read-out: MIC): 0.06 µg/mL (≈ 0.0818 µM)
- MIC (Staph. aureus 642A; Staphylococcus aureus, read-out: MIC): 0.12 µg/mL (≈ 0.164 µM)
- MIC (Staph. aureus CYR 1150; Staphylococcus aureus, CYR1150, BHI agar, read-out: MIC): 0.12 µg/mL (≈ 0.164 µM)
- MIC (Staph. aureus CYR 1162; Staphylococcus aureus, CYR1162, BHI agar, read-out: MIC): 0.06 µg/mL (≈ 0.0818 µM)
- MIC ([1]; Streptococcus pneumoniae, CMX635, BHI agar, read-out: MIC): 0.008 µg/mL (≈ 0.0109 µM)
- MIC (Strep. pyogenes C203; [11]): 0.004 µg/mL (≈ 0.00545 µM)
- MIC (Bact. fragilis 105; Bacteroides fragilis, read-out: MIC): 0.4 µg/mL (≈ 0.545 µM)
- MIC (Bact. fragilis SFM2975-7; Bacteroides fragilis, SFM29757, BHI agar, read-out: MIC): 6.3 µg/mL (≈ 8.58 µM)
- MIC (Bact. vulgatus 792; Phocaeicola vulgatus, read-out: MIC): 0.4 µg/mL (≈ 0.545 µM)
- MIC ([2]; read-out: MIC): 6.3 µg/mL (≈ 8.58 µM)
- MIC ([3]; Prevotella intermedia, ATCC15930, BHI agar, read-out: MIC): 0.4 µg/mL (≈ 0.545 µM)
- MIC (Cl. perfringens 104; Clostridium perfringens, 104): 1.6 µg/mL (≈ 2.18 µM)
- MIC ([4]; Clostridium perfringens, SFBC2026): 1.6 µg/mL (≈ 2.18 µM)
- MIC (Pep. magnus ATCC 29328; Finegoldia magna, ATCC29328, BHI agar, read-out: MIC): 0.4 µg/mL (≈ 0.545 µM)
- ED50 (Strep. pneumoniae; oral): 113 mg/kg
- ED50 (Strep. pneumoniae; sc, subcutaneous): 50 mg/kg
- MIC (Bact. fragilis UC-2): 1.6 µg/mL (≈ 2.18 µM)
- MIC (Staph. aureus CMX 686B; Staphylococcus aureus, CMX686B): 0.39 µg/mL (≈ 0.531 µM)
- MIC ([6]; Klebsiella aerogenes, ATCC10348): 100 µg/mL (≈ 136 µM)
- MIC ([8]; Pseudomonas aeruginosa, K799/61): 3.1 µg/mL (≈ 4.22 µM)
- MIC (Acinetobacter SP CMX 669; Acinetobacter, SPCMX669): 12.5 µg/mL (≈ 17 µM)
- MIC (Staph. aureus A-5278; Staphylococcus aureus, A5278): 128 µg/mL (≈ 174 µM)
- MIC ([9]; Staphylococcus epidermidis, CMX724G): 128 µg/mL (≈ 174 µM)
- MIC (Enterococcus CMX 729G; Enterococcus, CMX729G): 0.1 µg/mL (≈ 0.136 µM)
- MIC (Enterococcus A-5168; Enterococcus, A5168): 128 µg/mL (≈ 174 µM)
- MIC (Enterococcus GYR 1164; Enterococcus, GYR1164): 2 µg/mL (≈ 2.73 µM)
- MIC (Enterococcus GYR 1167; Enterococcus, GYR1167): 2 µg/mL (≈ 2.73 µM)
- MIC (Bact. fragilis SFM2906A; Bacteroides fragilis, SFM2906A): 3.1 µg/mL (≈ 4.22 µM)
- MIC [10]: 3.1 µg/mL (≈ 4.22 µM)
- MIC (Fusobacterium SP GS-10; Fusobacterium, SPGS10): 50 µg/mL (≈ 68.1 µM)
- MIC (Peptostrep. SP TB-11): 3.1 µg/mL (≈ 4.22 µM)

Reference: patent US4681872A (priority 1985, dated 1987)
